Experimental data taken from patent US12440537B1, “Compositions and methods for treating skin diseases, disorders, or conditions” (Washington University, priority 2020, dated 2025).
Ends that are not written are not given here.

What was measured:
keratinocytes [1] = experiment: IVL peptide protection against keratinocyte cell (detergent) lysis; assay type: cell-based; settings: keratinocytes treated with IVL late repeat peptide
keratinocytes [2] = experiment: Keratinocyte barrier function after IVL peptide treatment; assay type: cell-based; settings: keratinocytes treated with IVL peptide
vitamin D receptor [3] = target: T1, vitamin D receptor (Mus musculus, UniProt P48281); experiment: MC903 vitamin D receptor-mediated skin inflammation in WT and Involucrin (lvl) -/- mice; assay type: in vivo; set-up: from tissue; host or cells: skin of WT and Ivl-/- mice (in vivo)
T1 sequence (P48281 1-422): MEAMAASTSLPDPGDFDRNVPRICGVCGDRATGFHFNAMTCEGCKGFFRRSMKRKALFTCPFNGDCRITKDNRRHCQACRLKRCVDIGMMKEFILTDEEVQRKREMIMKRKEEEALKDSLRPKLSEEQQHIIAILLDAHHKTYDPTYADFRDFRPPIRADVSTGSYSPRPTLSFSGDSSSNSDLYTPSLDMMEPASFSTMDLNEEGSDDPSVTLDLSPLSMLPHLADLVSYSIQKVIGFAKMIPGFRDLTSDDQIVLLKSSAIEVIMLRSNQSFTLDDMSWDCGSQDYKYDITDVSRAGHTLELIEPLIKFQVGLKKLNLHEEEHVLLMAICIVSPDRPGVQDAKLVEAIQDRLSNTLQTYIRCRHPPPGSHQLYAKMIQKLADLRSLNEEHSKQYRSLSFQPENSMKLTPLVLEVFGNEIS
Description: Here, vitamin D receptor-mediated skin inflammation was induced in Involucrin (lvl) -/- mice and vitamin D receptor function in the epidermis was evaluated (see e.g., FIG. 14). It was shown that vitamin D receptor-induced inflammation is reduced in lvl^-/- skin (see e.g., FIG. 15). […] Basophils are a major source of IL-4 and IL-6 expression that drives skin inflammation (see e.g., FIG. 21).

vitamin D receptor [4] = target: T1, vitamin D receptor; experiment: Nuclear localization of vitamin D receptor in MC903-treated keratinocytes; assay type: cell-based; set-up: endogenous in cells; host or cells: Ivl-/- keratinocytes; settings: MC903 treated lvl-/- keratinocytes

Compound	protection against keratinocyte cell lysis (keratinocytes [1])	protection against keratinocyte cell lysis (keratinocytes [1]; listed as IVL late repeat peptide)	protection against keratinocyte cell lysis (keratinocytes [1]; listed as “late” repeat IVL peptide)	keratinocyte barrier function (keratinocytes [2])	CD4+ T cells (vitamin D receptor [3]; MC903-treated lvl-/- skin)	cell type populations (scRNA-seq) (vitamin D receptor [3]; MC903-treated lvl-/- skin)	vitamin D receptor induced inflammation (vitamin D receptor [3]; MC903 treatment, lvl-/- skin compared to WT)	nuclear localization of vitamin D receptor (vitamin D receptor [4])
ELPEQQEGQL (ELPEQQEGQL-NH2) [IVL peptide]	protects against keratinocyte cell lysis	protects the keratinocyte from detergent lysis	resistant to detergent lysis	improves keratinocyte barrier function	–	–	–	–
C=C1/C(=C\C=C2/CCC[C@]3(C)[C@@H]([C@H](C)/C=C/[C@@H](O)C4CC4)CC[C@@H]23)C[C@@H](O)C[C@@H]1O [MC903]	–	–	–	–	significantly decreased	Decreased basophils, macrophages, CD4^+ T cells, and basal II keratinocytes, and increased suprabasal keratinocytes	significantly reduced as early as day 6	loss of nuclear localization of vitamin D receptor
